Here are results for 30 molecules from US8557816B2, “Aurora kinase modulators and method of use” (Amgen Inc., priority 2007, dated 2013).

A value given as a limit tells only on which side of the number the result lay.

Test [1] deals with T1, AuroraA-TPX2 (Homo sapiens, UniProt O14965).
T1 construct: 20 μL of AuroraA-TPX2 KD GST for a final volume of about 41 μL; GST
T1 sequence (O14965 133-383 limits assumed): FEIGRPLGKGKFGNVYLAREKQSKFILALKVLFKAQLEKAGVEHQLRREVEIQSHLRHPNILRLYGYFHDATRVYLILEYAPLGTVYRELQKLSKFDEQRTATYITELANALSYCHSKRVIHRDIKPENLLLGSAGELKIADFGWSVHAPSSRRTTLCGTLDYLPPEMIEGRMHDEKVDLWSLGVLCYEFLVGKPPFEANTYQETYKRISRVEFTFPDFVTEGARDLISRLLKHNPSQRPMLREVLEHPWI
T1 sequence (Q9ULW0 1-43 partner limits assumed): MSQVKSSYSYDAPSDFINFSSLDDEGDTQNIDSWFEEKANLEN
The test is described as follows: AuroraA-TPX2 Homogeneous Time Resolved Fluorescent (HTRF) kinase assay. The format is biochemical. The following applies: average; read-out: AurA_IC50_IP (uM Avg). In outline: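 HTRF read-out (Eu 615 nm to APC 655 nm) of phosphorylated biotin-PLK, detected with 0.02 nM europium anti-phosphoPLK antibody and 0.0005 mg/mL SA-APC after overnight equilibration.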
(TR-FRET usually uses a lanthanide donor and a delayed reading to cut background.)

The target of test [2] is T2, AuroraB (Homo sapiens, UniProt Q96GD4).
T2 construct: 20 μL of AuroraB FL H is for a final volume of 41 μL; His
The test is described as follows: AuroraB Homogeneous Time Resolved Fluorescent (HTRF) kinase assay. The format is biochemical. The conditions noted are these: average; read-out: AurB_IC50_IP (uM Avg). The gist of the method: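 Full-length His-tagged kinase phosphorylates biotinylated Histone H3 (0.1 μM final) with ATP in pH 7.5 HEPES containing MgCl, MnCl, DTT and BSA for about 90 min. EDTA-containing detection mix with SA-APC and Eu-anti-phosphoHistone H3 then equilibrated about 60 min; HTRF read with 320 nm excitation, emissions 615/655 nm.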

T2 sequence (Q96GD4 whole entry): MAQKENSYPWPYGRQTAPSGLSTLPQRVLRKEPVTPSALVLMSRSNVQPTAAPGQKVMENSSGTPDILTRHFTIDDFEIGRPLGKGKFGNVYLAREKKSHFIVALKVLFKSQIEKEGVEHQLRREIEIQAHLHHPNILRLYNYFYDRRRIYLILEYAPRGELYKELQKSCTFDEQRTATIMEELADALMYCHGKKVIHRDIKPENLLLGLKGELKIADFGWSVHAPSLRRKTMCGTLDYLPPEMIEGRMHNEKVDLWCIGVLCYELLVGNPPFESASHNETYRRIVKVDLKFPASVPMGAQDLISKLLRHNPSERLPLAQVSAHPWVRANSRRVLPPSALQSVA

Take `Cn1cc(-c2ccc3c(Oc4ccc(Nc5nnc(-c6ccccc6)c6ccccc56)cc4)ccnc3c2)cn1` [compound 338, N-(4-(7-(1-methyl-1H-pyrazol-4-yl)quinolin-4-yloxy)phenyl)-4-phenylphthalazin-1-amine]: the values for the IC50 in test [1] and in test [2] were 0.005 µM and 0.009 µM, respectively.
In the same order, the values of `c1ccc(-c2nnc(Nc3ccc(Oc4ccnc5cc(-c6ccsc6)ccc45)cc3)c3ccccc23)cc1` [compound 339, 4-phenyl-N-(4-(7-(thiophen-3-yl)quinolin-4-yloxy)phenyl)phthalazin-1-amine] are 0.021 µM and 0.028 µM.
For `Fc1cc(F)c2c(Sc3ccc(Nc4nnc(-c5ccc(Cl)cc5)c5ccccc45)cc3)ccnc2c1` [compound 342, 4-(4-chlorophenyl)-N-(4-(5,7-difluoroquinolin-4-ylthio)phenyl)phthalazin-1-amine], in that order: 0.189 µM and 0.045 µM.
For `c1ccc(-c2nnc(Nc3ccc(Oc4ccnc5cc(-c6ccoc6)ccc45)cc3)c3ccccc23)cc1` [compound 343, N-(4-(7-(furan-3-yl)quinolin-4-yloxy)phenyl)-4-phenylphthalazin-1-amine], in that order: 0.024 µM and 0.008 µM.
For the molecule `Cc1ccc(-c2ccc3c(Oc4ccc(Nc5nnc(-c6ccccc6)c6ccccc56)cc4)ccnc3c2)o1` [compound 344, N-(4-(7-(5-methylfuran-2-yl)quinolin-4-yloxy)phenyl)-4-phenylphthalazin-1-amine], the IC50 was determined as 0.057 µM in test [1] and 0.022 µM in test [2].
For `COc1ccc2c(Oc3ccc(Nc4nnc(-c5ccc(Cl)cc5)c5ccccc45)cc3)ccnc2c1` [compound 345, 4-(4-chlorophenyl)-N-(4-(7-methoxyquinolin-4-yloxy)phenyl)phthalazin-1-amine], in that order: 0.04 µM and 0.024 µM.
In the same order, the values of `COc1cnc2c(Sc3ccc(Nc4nnc(N5CCCCC5)c5ccccc45)cc3)ccnc2c1` [compound 346, N-(4-(7-methoxy-1,5-naphthyridin-4-ylthio)phenyl)-4-(piperidin-1-yl)phthalazin-1-amine] are 0.044 µM and 0.024 µM.
For `COc1ccc2nccc(Oc3ccc(Nc4nnc(-c5ccccc5)c5ccccc45)cc3)c2n1` [compound 347, N-(4-(6-methoxy-1,5-naphthyridin-4-yloxy)phenyl)-4-phenylphthalazin-1-amine], in that order: 0.067 µM and 0.01 µM.
Turning to `COc1ccc2nccc(Sc3ccc(Nc4nnc(-c5ccc(Cl)cc5)c5ccccc45)cc3)c2n1` [compound 348, 4-(4-chlorophenyl)-N-(4-(6-methoxy-1,5-naphthyridin-4-ylthio)phenyl)phthalazin-1-amine], the IC50 was determined as 0.057 µM in test [1] and 0.023 µM in test [2].
Turning to `COc1cnc2c(Oc3ccc(Nc4nnc(-c5cc(C)no5)c5ccccc45)cc3)ccnc2c1` [compound 350, N-(4-(7-methoxy-1,5-naphthyridin-4-yloxy)phenyl)-4-(3-methylisoxazol-5-yl)phthalazin-1-amine], the IC50 in test [1] amounted to 0.04 µM; in test [2], 0.007 µM.
On to `N#Cc1cc2nccc(Sc3ccc(Nc4nnc(-c5ccc(Cl)cc5)c5ccccc45)cc3)c2s1` [compound 351, 7-(4-(4-(4-chlorophenyl)phthalazin-1-ylamino)phenylthio)thieno[3,2-b]pyridine-2-carbonitrile], for which the IC50 was found to be 0.008 µM in test [1] and 0.003 µM in test [2].
In the same order, the values of `c1ccc(-c2nnc(Nc3ccc(Sc4ccnc5[nH]ncc45)cc3)c3ccccc23)cc1` [compound 352, N-(4-(1H-pyrazolo[3,4-b]pyridin-4-ylthio)phenyl)-4-phenylphthalazin-1-amine] are 0.074 µM and 0.001 µM.
For `COc1cc2nccc(Sc3ccc(Nc4nnc(-c5ccccc5)c5ccccc45)cc3)c2cn1` [compound 353, N-(4-(7-methoxy-1,6-naphthyridin-4-ylthio)phenyl)-4-phenylphthalazin-1-amine], in that order: 0.058 µM and 0.008 µM.
In the same order, the values of `COc1cc2nccc(Sc3ccc(Nc4nnc(-c5ccc(Cl)cc5)c5ccccc45)cc3)c2cn1` [compound 354, 4-(4-chlorophenyl)-N-(4-(7-methoxy-1,6-naphthyridin-4-ylthio)phenyl)phthalazin-1-amine] are 0.025 µM and 0.009 µM.
As for `c1ccc(-c2nnc(Nc3ccc(Sc4ccnc5ccsc45)cc3)c3ccccc23)cc1` [compound 355, 4-phenyl-N-(4-(thieno[3,2-b]pyridin-7-ylthio)phenyl)phthalazin-1-amine], the IC50 was 0.241 µM in test [1] and 0.006 µM in test [2].
For `COc1cnc2c(Sc3ccc(Nc4nnc(-c5ccc(F)cc5)c5ccccc45)cc3)ccnc2c1` [compound 356, 4-(4-fluorophenyl)-N-(4-(7-methoxy-1,5-naphthyridin-4-ylthio)phenyl)phthalazin-1-amine], in that order: 0.036 µM and 0.012 µM.
In the same order, the values of `COc1ccc(-c2nnc(Nc3ccc(Sc4ccnc5cc(OC)cnc45)cc3)c3ccccc23)cc1` [compound 357, N-(4-(7-methoxy-1,5-naphthyridin-4-ylthio)phenyl)-4-(4-methoxyphenyl)phthalazin-1-amine] are 0.029 µM and 0.012 µM.
Consider `CCc1cc(-c2ccc(C)cc2)nnc1Nc1ccc(Sc2ccnc3cccnc23)cc1` [compound 358, N-(4-(1,5-naphthyridin-4-ylthio)phenyl)-4-ethyl-6-p-tolylpyridazin-3-amine], for which the IC50 came out at 0.049 µM in test [1] and 0.006 µM in test [2].
Consider `Clc1ccc(-c2nnc(Nc3ccc(Sc4ccnc5[nH]ncc45)cc3)c3ccccc23)cc1` [compound 359, N-(4-(1H-pyrazolo[3,4-b]pyridin-4-ylthio)phenyl)-4-(4-chlorophenyl)phthalazin-1-amine], for which the IC50 was 0.012 µM in test [1] and 0.017 µM in test [2].
In the same order, the values of `CNC(=O)c1cc(Oc2ccc(Nc3nnc(-c4ccc(Cl)cc4)c4ccccc34)cc2)ccn1` [compound 361, 4-(4-(4-(4-chlorophenyl)phthalazin-1-ylamino)phenoxy)-N-methylpicolinamide] are 0.245 µM and 0.173 µM.
For `c1ccc(-c2nnc(Nc3ccc(Sc4ccnc5[nH]cnc45)cc3)c3ccccc23)cc1` [compound 362, N-(4-(3H-imidazo[4,5-b]pyridin-7-ylthio)phenyl)-4-phenylphthalazin-1-amine], in that order: 0.066 µM and 0.092 µM.
For `Clc1ccc(-c2nnc(Nc3ccc(Sc4ccnc5[nH]cnc45)cc3)c3ccccc23)cc1` [compound 363, N-(4-(3H-imidazo[4,5-b]pyridin-7-ylthio)phenyl)-4-(4-chlorophenyl)phthalazin-1-amine], in that order: 0.019 µM and 0.036 µM.
`COc1ccc2c(Sc3ccc(Nc4nnc(-c5ccc(Cl)cn5)c5ccccc45)cc3)ccnc2c1` [compound 364, 4-(5-chloropyridin-2-yl)-N-(4-(7-methoxyquinolin-4-ylthio)phenyl)phthalazin-1-amine]: the IC50 was determined as 0.036 µM in test [1] and 0.073 µM in test [2].
In the same order, the values of `Clc1ccc(-c2nnc(Nc3ccc(Sc4ccnc5ccccc45)cc3)c3ccccc23)nc1` [compound 365, 4-(5-chloropyridin-2-yl)-N-(4-(quinolin-4-ylthio)phenyl)phthalazin-1-amine] are 0.016 µM and 0.011 µM.
Turning to `Cc1csc(-c2nnc(Nc3ccc(Sc4ccnc5ccsc45)cc3)c3ccccc23)c1` [compound 366, 4-(4-methylthiophen-2-yl)-N-(4-(thieno[3,2-b]pyridin-7-ylthio)phenyl)phthalazin-1-amine], the IC50 amounted to 0.037 µM in test [1] and 0.051 µM in test [2].
In the same order, the values of `COc1cnc2c(Oc3ccc(Nc4nnc(-c5ccccc5)c5c4CCC5)cc3)ccnc2c1` [compound 367, N-(4-(7-methoxy-1,5-naphthyridin-4-yloxy)phenyl)-4-phenyl-6,7-dihydro-5H-cyclopenta[d]pyridazin-1-amine] are 0.028 µM and 0.057 µM.
In the same order, the values of `COc1ccc2c(Oc3ccc(Nc4nnc(-c5ccccc5)c5c4CCC5)cc3)ccnc2c1` [compound 368, N-(4-(7-methoxyquinolin-4-yloxy)phenyl)-4-phenyl-6,7-dihydro-5H-cyclopenta[d]pyridazin-1-amine] are 0.04 µM and 0.063 µM.
Take `c1ccc(-c2nnc(Nc3ccc(Oc4ccnc5ccnn45)cc3)c3ccccc23)cc1` [compound 370, 4-phenyl-N-(4-(pyrazolo[1,5-a]pyrimidin-7-yloxy)phenyl)phthalazin-1-amine]: the IC50 in test [1] turned out to be 0.505 µM; in test [2], 0.594 µM.
In the case of `COc1cnc2c(Oc3ccc(Nc4nnc(-c5ccc(Cl)cc5)c5c4CCC5)cc3)ccnc2c1` [compound 411], the IC50 in test [1] and in test [2] was > 25 µM each time.
On to `COc1ccc2c(Oc3ccc(Nc4nnc(-c5ccc(Cl)cc5)c5c4CCC5)cc3)ccnc2c1` [compound 412], for which the IC50 in test [1] and in test [2] was > 25 µM throughout.
